This passage reports melting point results from a melting point compilation (Tetko et al.; mined from patent text by program, amines drawn as free bases though some values may be those of a salt).

SMILES strings stand for the structures.

As usually defined, the melting point is the temperature, or range, at which the solid turns liquid.

On to `O=C(CCCCC(=O)Oc1cc(O)cc(O)c1)Oc1cc(O)cc(O)c1`, for which the melting point is 251 to 255 °C.
As for `CCCC(CCC)C(=O)NC(=O)CN`, the figure is 127 °C; as for `COc1ccc(CCNC(=O)[C@@H](N)C(C)C)cc1OC`, 52 to 54 °C.
Turning to `CCOC(=O)c1ccc2c(SC(=O)N(C)C)cccn2c1=O`, the melting point was in the range of 119 to 121 °C.
For `CN(CCCN1CCN(c2ccccc2C2CC2)CC1)c1nccc(C(N)=O)n1`, the melting point was found to be 170 °C.
The same measure for `COc1cc(CNC(=O)c2nc3cn(CCCc4ccccc4)nc3c(=O)[nH]2)ccc1F`: 137 to 140 °C; for `COC(=O)CC(=O)/C=C/c1c(-c2ccc(F)cc2)n(C(C)C)c(=O)c2ccccc12`: 123 to 125 °C.
Turning to `CCOCc1nc2c(N)nc3ccccc3c2s1`, the melting point is 149 to 151 °C.
`CC(=O)N[C@@H](C)COc1ccc(-c2nc3ccc(OCC4CC4)cc3o2)nc1` displayed a melting point of 179 to 180 °C.
As for `C=CCOc1ccc2ccc(OCC(=O)OC)cc2c1`, the figure is 69 to 70 °C; as for `Cn1cccc1C(=O)NN(C(=O)c1ccccc1)C(C)(C)C`, 182 to 185 °C.
As for `CC(OCc1ccc(-c2ccccc2)cc1)C(=O)NO` (stereo not drawn), the figure is 120 to 123 °C; as for `CNC(=O)N1CC(Sc2ccc(Cl)cc2)C1`, 161 to 162 °C.
The same measure for `CS(=O)(=O)OCCCCC1C(=O)Nc2cc(F)ccc21` (stereo not drawn): 106 to 108 °C; for `CSC(=CC(=O)C(F)(F)F)NCc1ccc(Cl)nc1`: 112 °C; for `Clc1ccc(C#Cc2ccccc2)cn1`: 70 to 72 °C.
With `COC(=O)C=Cc1ccc(OCC(C)NCC(O)c2cccc(Cl)c2)cc1` (stereo not drawn), the melting point lay within 97 to 103 °C.
The same measure for `N#Cc1cc2c3ccccc3[nH]c(=O)n2n1`: 302 to 304 °C; for `Cc1ccc(N(c2ccc(-c3ccc(N(c4ccccc4)c4cccc(C)c4)cc3)cc2)c2ccc3ccc4cccc5ccc2c3c45)cc1`: 172 to 173 °C; for `Clc1cc(OCCOc2ccc3ccccc3c2)cc(Cl)c1Br`: 140 to 142 °C.
`CCCn1c(C#N)c(Cl)n(-c2ccc(Cl)cc2)c1=O` gave a melting point of 102 to 103 °C.
The same measure for `O=C(Nc1cccc(CN2CCCCC2)c1)C1=Cc2cc(-c3ccccc3)ccc2CC1`: 152 to 153 °C.
Take `Cc1nc2cc(C(c3cccc(Cl)c3)n3ccnc3)ccc2[nH]c1=O` (stereo not drawn): the melting point came out at 271 °C.
`COc1ccc(S(=O)(=O)N(Cc2ccccc2)C(C(=O)NO)C(O)C(C)C)cc1` (stereo not drawn) gave a melting point of 81 to 82 °C.
The same measure for `N#CCCNC(=O)c1cccc(-c2cccc3nn(Cc4cccc(Cl)c4)cc23)c1`: 185 to 186 °C; for `NS(=O)(=O)c1ccsc1`: 187 to 190 °C.
The same measure for `CC(C)(C)c1ccc(S(=O)(=O)Oc2ccc(C(C)(C)c3ccc(OS(=O)(=O)c4ccc(C(C)(C)C)cc4)cc3)cc2)cc1`: 124 to 127 °C; for `O=C(O)c1ccccc1COc1cccc(Cl)c1`: 154 to 155 °C; for `CC1CCc2c(N3CCC(O)CC3)ccc3c(=O)c(C(=O)O)cn1c23` (stereo not drawn): 238 to 240 °C.
For `CO/N=C(/CNC(=O)c1cnc(O[C@@H](C)C(F)(F)F)c(-c2ccc(Cl)cc2)n1)C1CC1`, the melting point is 149 to 152 °C.
On to `CCOC(NC(=O)c1cccc(OC)c1)C(N)=O` (stereo not drawn), for which the melting point fell in the range of 143 to 144 °C.
On to `Cn1cc(-c2cccc(N3Cc4cc(C(C)(C)C)ccc4C3=O)c2CO)cc(Nc2ccccn2)c1=O`, for which the melting point lay within 138 to 139 °C.
The same measure for `CCOC(=O)c1cc2n(C)c3ccc(F)cc3c(=O)n2n1`: 288 to 290 °C; for `CCCCNC(=O)Nc1ccccc1C(=O)OC`: 84 to 85 °C; for `O=C(Nc1ccccc1F)OC1CN2CCC1CC2` (stereo not drawn): 124 to 126 °C.
In turn, `Cc1ccc2c(c1)C(=O)C(=O)N2CCN(C(C)C)C(C)C` returned a melting point of 65 to 67 °C.
The same measure for `OCCCc1cn(-c2ccc(F)cc2)c2ccc(Cl)cc12`: 67 to 69 °C; for `COc1cccc(Sc2ccnc(Nc3ccc(N4CCOCC4)cc3)n2)c1`: 159 to 161 °C; for `N=C(NC1CC1)NN1CCc2cc(Cl)ccc21`: 146 to 149 °C.
For the compound `CC(=O)OC1CSC(Sc2ccccc2C#N)C(OC(C)=O)C1OC(C)=O` (stereo not drawn), the melting point is 160 °C.
As for `Cc1cc(CCCCCOc2c(Cl)cc(C3=NCCC3)cc2Cl)on1`, the figure is 57 to 59 °C; as for `Cc1c(SCCSCc2ccncc2)ccnc1CNc1cnc2ccccc2c1`, 123 to 126 °C; as for `CC1(C)[C@@H](NCC(=O)N2C[C@@H](F)C[C@H]2C#N)CC[C@@]1(C)c1nc(-c2ccc(F)cc2)no1`, 127 to 131 °C.
The same measure for `COc1ccc(C(C)C)cc1-c1cc(C(=O)NC2CCN(C(=O)OC(C)(C)C)CC2)c(OCc2ccccc2)cc1OCc1ccccc1`: 168 to 170 °C; for `CN(C)C(=O)C1(N2CCCC2)CCNCC1`: 150 °C.
As to `CCOC(=O)N1CCc2nc3ccccc3c(Oc3ccccc3)c2CC1`, the melting point stood at 150 °C.
In turn, `O=C(Cc1c(-c2ccccc2)c2cc(CSc3ccccn3)c(Cl)cc2oc1=O)Nc1ccc(Cl)cc1C(F)(F)F` returned a melting point of 213 to 215 °C.
On to `CCOC(=O)c1cccc(NC(=O)C(CO)NS(=O)(=O)c2ccc(Cl)cc2)c1` (racemic), for which the melting point fell in the range of 142 to 144 °C.
`Cc1cccc(C)c1CNc1cc(Br)cc2c1nc(C)n2C`: the melting point was determined as 185 °C.
`CN1CC=C(c2cn(-c3cccnc3)c3ccc([N+](=O)[O-])cc23)CC1`: the melting point was in the range of 175 to 177 °C.
The same measure for `CCCC1(CCC)c2ccccc2-c2cc3c(cc21)OCN3c1c(O)ccc2oc3ccccc3c12`: 304 to 305 °C; for `CCOC(=O)CCc1nc(-c2cc3ccccc3o2)cs1`: 65 to 66 °C; for `Cc1cc(F)ccc1-n1c(CF)nc2ccc(N)cc2c1=O`: 193 to 196 °C.
As for `COC(=O)c1cc(=O)c2ccc(OCC(O)COc3cccc(O)c3C(C)=O)cc2[nH]1` (stereo not drawn), the figure is 192 to 194 °C; as for `CC(C)c1nc(-c2ncn3c2C(C)(C)N(C(=O)N2CCCC2)c2cc(F)ccc2-3)no1`, 154 to 156 °C; as for `Oc1cc(C(F)(F)F)ccc1-c1cc(Oc2ccc3cccnc3c2)ncn1`, 210 to 212 °C.
The same measure for `COc1ccc2[nH]cc(-c3cc4c(OC)ccnc4[nH]3)c2c1`: 294 to 295 °C; for `CCOC(=O)C1(C)CN(Cc2ccccc2)C(=O)C(=C2SC=CS2)C1=O` (stereo not drawn): 111 to 113 °C; for `O=C1NC(=O)c2c(F)cccc21`: 176 to 179 °C.
`CCCCCCCCCCCCc1ccccc1CC(O)(SCCC(=O)O)C(N)=O` (stereo not drawn) returned a melting point of 97.5 to 102 °C.
`CC(CN1CCCC1)N1c2ccccc2Sc2ccc(C(=O)NCc3cccc(Cl)c3)cc21` (racemic): the melting point worked out at 80 °C.
The same measure for `N=C(OCc1ccc(Cl)cc1)N1Cc2ccccc2-c2ccccc2C1`: 103 to 105 °C; for `CC(C)(C)CC(C)(C)C(CCC(=O)O)CC(=O)O` (stereo not drawn): 135 to 137 °C; for `CCCCCCCCCCCCCCCCCCSC(=O)Nc1ccc(NC(=O)NS(=O)(=O)c2ccc3ccccc3c2)cc1`: 193 °C.
The compound `Cc1cc2c(c(C)c1N)C(c1ccccc1)CO2` (stereo not drawn) came in with a melting point of 127 to 128 °C.
As for `CC(C)(C)CC(=Cc1ccc(Cl)cc1)Cn1cncn1`, the figure is 81 to 84 °C.
`Cc1oc(-c2ccc(S(C)(=O)=O)cc2)c(Oc2ccc(F)cc2F)c(=O)c1Cl` gave a melting point of 210 °C.
The compound `CC(=O)N1CCc2c([nH]c3ccccc23)C1` came in with a melting point of 240 to 241 °C.
Turning to `O=C1CCCc2cc(OCCOc3ccccc3)ccc21`, the melting point lay within 109 to 113 °C.
The same measure for `COCOc1ccccc1-c1cc(-c2cccc(C(=O)OC)c2)c(C#N)c(N)n1`: 129 to 130 °C; for `O=C(Nc1cc(OCCCON=Cc2ccc(-c3ccccc3)cc2)ccc1C(=O)O)c1ccc(C(F)(F)F)cc1`: 206 to 207 °C.
As for `CCCCc1nc(S(C)(=O)=O)c(C(=O)O)n1Cc1ccc(-c2ccccc2C(=O)O)cc1`, the figure is 196 °C.
`Cc1oc(-c2ccccc2)nc1CCOc1ccc(CN(O)C(N)=O)cc1`: the melting point is 148 to 150 °C.
In turn, `Brc1ccc(-c2coc3c2ccc2ccccc23)cc1` had a melting point of 125 to 130 °C.
The compound `CC(C)(C)c1ncc(Br)cn1` registered a melting point of 50 to 51 °C.
`CC(NC(=O)/C=C\C(=O)O)C(O)c1ccccc1` (stereo not drawn): the melting point lay in the range of 154 to 156 °C.
`CCc1cc(C(=O)c2ccccc2Cl)c(-n2c(CNC(=O)c3cc4ccccc4n3CC(=O)O)nnc2C(F)(F)F)s1`: the melting point fell in the range of 200 to 203 °C.
Take `CCn1c2ccccc2c2cc(N(c3ccccc3)c3ccc(-c4ccc(N(c5ccccc5)c5ccc6c(c5)c5ccccc5n6CC)cc4)cc3)ccc21`: the melting point fell in the range of 250 to 252 °C.
The same measure for `CCc1nc2c(N)nc(C)c(C)c2n1CCOCCNC(=O)NC(=O)c1ccccc1`: 185 to 187 °C.
Consider `O=C(NC1CCNC1)C12CC3CC(CC(C3)C1)C2` (stereo not drawn), for which the melting point fell in the range of 186 to 188 °C.
The same measure for `Cc1ccc(Cl)c(C2CCc3c(C)cnnc3C2)c1` (stereo not drawn): 65 to 70 °C.
`CCOC(=O)c1c(Nc2ccncc2)c2ccc(Cl)cc2n1CC(=O)N(CC)CC`: the melting point was 212 to 214 °C.
As for `O=C(O)COc1cccc2c1CCC(n1nc(-c3c(-c4ccccc4)nn4ccccc34)ccc1=O)C2=O` (stereo not drawn), the figure is 225 to 227 °C.
As for `OC1CSC(Oc2cc(-c3ccncc3)cnc2F)C(O)C1O` (stereo not drawn), the figure is 98 to 102 °C.
As for `NS(=O)(=O)c1cc(C2OCCO2)cs1`, the figure is 225 to 227 °C.
`CCOC(=O)C1(CCl)Nc2cc(C)cc(C)c2C(=O)N1c1ccccc1Cl` (stereo not drawn) displayed a melting point of 94 to 95 °C.
The compound `CCOC(=O)Cc1cc2ccc(Br)cc2[nH]1` yielded a melting point of 67 to 69 °C.
As for `CSc1ccc2c(c1)Cc1ccc(C(=O)O)cc1O2`, the figure is 266 to 267 °C.
